Test results from patent US20110021440A1, “APOPTOTIC PATHWAY TARGETING FOR THE DIAGNOSIS AND TREATMENT OF CANCER” (UNIVERSITY OF MARYLAND, BALTIMORE, priority 2007, published 2011).
Entries after “also recorded” stand apart in the source; their conditions may differ. Peptide text beside a SMILES is read from it. * marks the point of attachment. Cbz = O=C(OCc1ccccc1)*

What was measured:
MCF10A cells [1] = experiment: Apoptosis / cell death in MCF10A cells (PARP cleavage); assay type: cell-based, human; conditions: for cell death: 24 h, TRAIL 1 μg/mL, CHX 30 μg/mL, DOX 3 μg/mL, not shown; for apoptosis as assessed by PARP cleavage: 24 hours
Procedure: (§1) FIG. 1A relates to human mammary epithelial cells (MCF10A) grown for 24 h in the presence or absence of a proteasomal inhibitor (MG132, 5 μM). […] Lysates from Ramos cells are included as a positive control for Bik and parallel blotting for β-actin confirm equivalent levels of protein. FIG. 1B relates to Bik protein increases after forced cell rounding with the actin polymerization inhibitor, Latrunculin-A (LA, 5 μM for 24 h). Bik protein is low in standard growth media (GROW). […] Cell rounding may therefore act selectively to upregulate Bik rather than through a nonspecific apoptotic signal.
(§2) Several apoptotic stimuli were tested for their ability to induce Bik expression in MCF10A cells were evaluated (FIG. 7A). Compared to a Ramos positive control lysate, MCF10A cells express very low levels of Bik under normal growth conditions. […] Bik expression in MCF10A cells increased after treatment with Latrunculin-A (LA), an inhibitor of the actin cytoskeleton that causes cell rounding (Martin et al., Mol. Cell. Biol., 21:6529-6536 (2001)). Apoptosis caused by cell rounding and cytoskeletal disruption has been termed amorphosis (Martin et al., Biochim. Biophys. Acta., 1692:145-157 (2004)), and resistance to amorphosis is thought to contribute to metastatic potential by allowing tumor cells to tolerate the cell shape changes that occur during bloodborne dissemination (Martin et al., Oncogene, 23:4641-4645 (2004); Mehlen et al., Nat. Rev. Cancer, 6:449-458 (2006); Pinkas et al., Mol. Cancer. Res., 2:551-556 (2004)). […] Since Bik is induced by cell rounding, its loss in tumors may reduce their apoptotic sensitivity and yield a greater metastatic potential. In fact, reduced expression of Bik predicts increased nodal involvement in colorectal cancer (Bandres et al., Oncol. Rep., 12:287-292 (2004)). Conversely, forced expression of Bik inhibits systemic breast tumor growth (Zou et al., Cancer Res., 62:8-12 (2002)).

Bik protein [2] = experiment: Western blotting of Bik protein in MCF10A cells; assay type: cell-based, human; conditions: 24 h
Procedure: as §1
(§3) FIG. 6 illustrates Bik protein is degraded by the proteasome but remains reduced in tumor cell lines. Protein lysates from control cells (Ramos), nontumorigenic human mammary epithelial cells (MCF10A) or 11 human breast tumor cell lines were immunoblotted for Bik and b-actin as a loading control. […] Bik protein remained low in the tumor cell lines, even in the presence of MG132.
(§4) FIG. 7 illustrates tumor lines with reduced Bik resist apoptosis by cytoskeletal disruption.
(§5) Bik values were normalized to amplification of GAPDH, which was highly consistent in all cell lines and dissociation curves confirmed specificity with a single major amplification product in each reaction type (FIG. 5B). Despite the detectable levels of mRNA, Bik protein levels were very low in the tumor lines and MCF10A cells under normal growth conditions. Since Bik can be degraded by the proteasome (Zhu et al., Oncogene, 24:4993-4999 (2005)), cells were treated with MG132 to inhibit the proteasome and increase detectable Bik levels (FIG. 6). […] Downregulation of Bik in MDA-MB-453 cells therefore occurs independently from mRNA expression. However, loss of Bik function as a common event in breast tumors continues to be supported by these finding.
as §2

[3] = tested on: MCF10A cells stably expressing Bcl-xL; experiment: Cell viability assay (XTT), MCF10A cells expressing Bcl-xL; assay type: cell-based, human
Procedure: (§6) FIG. 13 illustrates cells expressing the survival proteins Bcl-2 or Bcl-xL are highly resistant to cell death induced by cell rounding (LA). […] Nearly 60% of cells overexpressing Bcl-xL remain viable even at concentrations of LA as high as 20 μM. […] Viability was measured with XTT and each point represents the mean+/−S.D. for triplicate samples.

Bik protein [4] = experiment: Western blotting of Bik protein in MCF10A cells stably expressing Bcl-xL; assay type: cell-based, human; conditions: forced cell rounding, LA 5 μM, 24 h
Text: (§7) MCF10A or MCF-7 cells show comparably low levels of Bik. […] This increase in Bik is so strong that the moderate increases observed with LA in MCF10A cells (FIG. 7B) cannot even be detected here due to the short exposure times necessary to prevent oversaturating signal.
(§8) FIG. 15 illustrates apoptotically-resistant cell accumulate high levels of Bik when rounded. […] This increase in Bik is so strong that the moderate increases observed with LA in MCF10A cells (FIG. 7A) cannot even be detected here due to the short exposure times necessary to prevent oversaturating signal.

BCRP protein [5] = experiment: Western blotting of BCRP in MCF-7 cells; assay type: cell-based, human; conditions: LA 5 μM, 24 h, rounded
Procedure: (§9) FIG. 12 illustrates cell rounding also upregulates the BCRP drug resistance protein. […] MCF10A mammary epithelial cells or MCF-7 and Bt-474 breast tumor cells were grown for 24 h in standard media (Control), serum-free conditions (DMEM) or forced cell rounding through inhibition of actin polymerization with Latrunculin-A (LA, 5 μM—Rounded). […] Levels of actin remain constant.

MCF10A cells [6] = assay type: cell-based
Procedure: as §4, §6
FIG. 19 illustrates that YC137 remains toxic to normal cells (MCF10A). […] Such compounds would not be expected to be effective therapies due to likely side effects on normal tissues. If compounds were only toxic to rounded cells, that would be acceptable, since normal tissues are attached and not rounded.
as §2

BCRP protein [7] = experiment: Western blotting of BCRP in MCF10A cells; assay type: cell-based, human; conditions: LA 5 μM, 24 h, rounded
Procedure: as §9

Bik protein [8] = experiment: Western blotting of Bik protein in MCF10A cells stably expressing Bcl-2; assay type: cell-based, human; conditions: forced cell rounding, LA 5 μM, 24 h
Text: as §7, §8

[9] = tested on: MCF10A cells stably expressing Bcl-2 (10A-Bcl2); experiment: Cell viability assay (XTT), 10A-Bcl2 cells; assay type: cell-based
Procedure: Viability was measured with XTT and each point represents the mean+/−S.D. for triplicate samples.

breast tumor cell lines = experiment: Cell viability assay (XTT), breast tumor cell lines; assay type: cell-based, human; conditions: tumor cell lines with reduced Bik; up to very high doses, 5 μM LA; listed as LA
Procedure: as §4
as §2, with “Conversely, forced expression of Bik inhibits systemic breast tumor growth (Zou et al., Cancer Res., 62:8-12 (2002)).” left out

BCRP protein [10] = experiment: Western blotting of BCRP in Bt-474 cells; assay type: cell-based, human; conditions: LA 5 μM, 24 h, rounded
Procedure: as §9

Bik protein [11] = experiment: Immunoblot of Bik protein in 11 human breast tumor cell lines; assay type: cell-based; conditions: +MG132 5 μM, 24 h; compared with MCF10A
Text: as §3, §5

[12] = tested on: tubulin microtentacles of MDA-436 cells; experiment: DIC imaging of tubulin microtentacles in detached breast tumor cells; assay type: cell-based; conditions: tetracaine 100 μM
Procedure: (§10) FIG. 23 illustrates methods used to image circulating tumor cells and microtentacles. Surgically-isolated blood vessels from mice are sutured to the ends of glass micropipettes to allow solution flow through the vessels. After endothelial labeling with Fluo-4 (green), MDA-436 breast tumor cells, stained with QDot-655 (red), were injected and allowed to circulate through the vessel. […] In the right panel the effects of microtentacle inhibitors are imaged with DIC microscopy. Detachment of vimentin-expressing breast tumor cell lines, like MDA-231 and MDA-436 (pictured, FIG. 23 D), stimulates the formation of rapidly-moving tubulin microtentacles (Whipple et al., “Vimentin filaments support extension of tubulin-based microtentacles in detached breast tumor cells”, Cancer Research, (2008), (under revision)). We added the kinesin inhibitor, tetracaine (100 μM) (Miyamoto et al., Biophys. J., 78:940-949 (2000)) and collected DIC images every 30 seconds (Yoon et al., “Microtentacles in detached breast tumor cells require kinesin motor activity”, manuscript in preparation (2008)). After approximately 10 minutes, tubulin microtentacles collapse dramatically (FIG. 23 E). This concentration of drug is non-toxic to these cells, even after 24 hours.

MDA-436 cells = experiment: Toxicity of microtentacle inhibitors to breast tumor cells; assay type: cell-based; conditions: 100 μM, even after 24 hours
Procedure: as §10

[13] = tested on: Bax- and Bak-deficient MEFs (DKO); conditions: cited from earlier work
[14] = LA 5 μM, TRAIL 1 μg/mL, CHX 30 μg/mL, DOX 3 μg/mL
[15] = LA 24 h, versus parental MCF10A

C[C@@H]1C[C@@H]([C@H](O)CC2CC(=O)NC(=O)C2)C(=O)[C@@H](C)C1 [Cycloheximide]
cell death (MCF10A cells [1]): causes cell death comparable to LA | apoptosis as assessed by PARP cleavage (MCF10A cells [1]): does induce apoptosis | Bik protein (Western blotting) (Bik protein [2]; [14]): do not increase Bik levels | Bik protein (Western blotting) (Bik protein [2]; LA 5 μM, TRAIL 1 μg/mL, CHX 30 μg/mL, DOX 3 μg/mL, listed as cycloheximide): did not induce significant expression of Bik; also recorded: did not increase Bik protein

COc1cccc2c1C(=O)c1c(O)c3c(c(O)c1C2=O)C[C@@](O)(C(=O)CO)C[C@@H]3O[C@H]1C[C@H](N)[C@H](O)[C@H](C)O1 [Doxorubicin]
cell death (MCF10A cells [1]): causes cell death comparable to LA | apoptosis as assessed by PARP cleavage (MCF10A cells [1]): does induce apoptosis | Bik protein (Western blotting) (Bik protein [2]; [14]): did not induce significant expression of Bik; also recorded: do not increase Bik levels; also recorded: did not increase Bik protein

C/C1=C/C(=O)O[C@@H]2C[C@@H](CC[C@H](C)/C=C\C=C\CC1)O[C@@](O)([C@@H]1CSC(=O)N1)C2 [Latrunculin-A]
resistance to apoptosis induced by cell rounding (XTT) [3, 15]: significantly resistant | cells remaining viable (XTT) ([3]; LA as high as 20 μM, 24 h): ~60% | Bik protein (Western blotting) (Bik protein [4]): dramatic increases in Bik protein | Bik protein (Western blotting) (Bik protein [2]; [14]): increases; also recorded: did increase Bik significantly | BCRP protein (Western blotting) (BCRP protein [5]): increases BCRP protein | LA concentration at which cell death is maximal (MCF10A cells [6]): 5 µM | cell viability (XTT) (MCF10A cells [6]; LA 24 h, doses as low as 2.5 μM): drops significantly | BCRP protein (Western blotting) (BCRP protein [7]): increases BCRP protein | Bik protein (Western blotting) (Bik protein [8]): dramatic increases in Bik protein | resistance to apoptosis induced by cell rounding (XTT) [9, 15]: significantly resistant | tolerated doses of LA ([9]; cell rounding): ≤ 20 µM | resistance to LA-induced apoptosis (XTT viability) (breast tumor cell lines): highly resistant to LA-induced apoptosis; also recorded: significant resistance to apoptosis | BCRP protein (Western blotting) (BCRP protein [10]): not

CC(C)C[C@@H](C=O)NC(=O)[C@H](CC(C)C)NC(=O)[C@H](CC(C)C)NC(=O)OCc1ccccc1 [MG132] (Cbz-Leu-Leu-Leu-aldehyde)
Bik protein (Western blotting) (Bik protein [2]; MG132 5 μM): strong induction of Bik protein; also recorded: strongly upregulated; also recorded: strongly increased | Bik protein (immunoblot) (Bik protein [11]): significantly lower levels of Bik protein; also recorded: remained low

COC(=O)N[C@@H](CCSC)C(=O)Oc1ccc(Nc2nc3c(s2)C(=O)c2ccccc2C3=O)cc1 [YC-137]
toxicity to attached and rounded cells (MCF10A cells [6]): toxic to both attached and rounded MCF10A cells | viability (XTT) (MCF10A cells [6]): lose viability | cell death on combining with cell rounding (MCF10A cells [6]; YC-137 with LA 2.5 μM, 24 h): increases cell death | decrease in cell viability (XTT) compared to YC-137 alone ([9]; 1 μg/ml YC-137 combined with 2.5 μM LA): greater than 2 fold | cell viability (XTT) compared to YC-137 alone ([9]; YC-137 1 μg/ml or 2.5 μg/ml with LA 2.5 μM, 24 h, P<0.05): significant decrease in cell viability | doses at which YC-137 causes toxicity on its own ([9]; YC-137 alone): higher than 1 μM | effect on rounded versus attached cells ([9]; YC-137 at lower levels): affects rounded cells more than attached cells | cell death on combining with cell rounding ([9]; YC-137 with LA 2.5 μM, 24 h): increases cell death

CCCCNc1ccc(C(=O)OCCN(C)C)cc1 [tetracaine]
time to collapse of tubulin microtentacles [12]: approximately 10 minutes | toxicity to the cells (MDA-436 cells): non-toxic

BH3I-1
toxicity against cells that lack Bax and Bak [13]: toxic against cells that lack Bax and Bak

B1: TRAIL: apoptotic stimulus (protein, UniProt P50591 1-281, looked up)
Tumor necrosis factor ligand …: MAMMEVQGGPSLGQTCVLIVIFTVLLQSLCVAVTYVYFTNELKQMQDKYSKSGIACFLKEDDSYWDPNDEESMNSPCWQVKWQLRQLVRKMILRTSEETISTVQEKQQNISPLVRERGPQRVAAHITGTRGRSNTLSSPNSKNEKALGRKINSWESSRSGHSFLSNLHLRNGELVIHEKGFYYIYSQTYFRFQEEIKENTKNDKQMVQYIYKYTSYPDPILLMKSARNSCWSKDAEYGLYSIYQGGIFELKENDRIFVSVTNEHLIDMDHEASFFGAFLVG
cell death (MCF10A cells [1]): causes cell death comparable to LA | apoptosis as assessed by PARP cleavage (MCF10A cells [1]): does induce apoptosis | Bik protein (Western blotting) (Bik protein [2]; [14]): did not induce significant expression of Bik; also recorded: do not increase Bik levels; also recorded: did not increase Bik protein
